Publication PMC11502347 (Frontiers in Microbiology, 2024)

Experiments:
[1] = system: Mtb CF 44 (mono-resistant to isoniazid); type: cell-based, Mycobacterium tuberculosis; details: Mono INH clinical isolate; REMA, 7H9 + 10% OADC, 7 days
[2] = system: Mtb CF 184 (mono-resistant to isoniazid); type: cell-based, Mycobacterium tuberculosis; details: Mono INH clinical isolate; REMA, 7 days

| SMILES | CIM90 CF 44 [1] | CIM90 CF 184 [2] |
| --- | --- | --- |
| O=C(Nc1ccc(N2CCN(c3ccccn3)CC2)c(F)c1)c1ccc2no[n+]([O-])c2c1 [Compound 5n] | 4,71 ± 3,11 μM | 0,96 ± 1,04 μM |
| NCC[C@H](O)C(=O)N[C@@H]1C[C@H](N)[C@@H](O[C@H]2O[C@H](CN)[C@@H](O)[C@H](O)[C@H]2O)[C@H](O)[C@H]1O[C@H]1O[C@H](CO)[C@@H](O)[C@H](N)[C@H]1O [AMK, amikacin] | 1,48 ± 1,12 μM | 0,24 ± 0,00 μM |
| O=C(Nc1ccc(N2CCSCC2)c(F)c1)c1ccc2no[n+]([O-])c2c1 [Compound 5b] | 0,52 ± 0,09 μM | 0,37 ± 0,15 μM |
| NNC(=O)c1ccncc1 [INH, isoniazid] | > 182,30 μM | > 182,30 μM |
| CO[C@H]1/C=C/O[C@@]2(C)Oc3c(C)c(O)c4c(O)c(c(/C=N/N5CCN(C)CC5)c(O)c4c3C2=O)NC(=O)/C(C)=C\C=C\[C@H](C)[C@H](O)[C@@H](C)[C@@H](O)[C@@H](C)[C@H](OC(C)=O)[C@@H]1C [RFP, rifampicin] | 0,05 ± 0,01 μM | 0,05 ± 0,01 μM |
